Measurements taken from PubChem BioAssay AID1259407 (Chemical Carcinogenesis Research Information System (CCRIS), 2018).
Activity calls are given as the source filed them. No rule for the calls is given here.

Test system: CCRIS mutagenicity, Ames/micronucleus/aberration tests
Experiment: CCRIS mutagenicity studies

Measured: mutagenic call

COc1cc([C@@H]2c3cc4c(cc3[C@H](O)[C@H]3COC(=O)[C@H]23)OCO4)cc(OC)c1OC
inactive: Test System: AMES SALMONELLA TYPHIMURIUM, Strain/Indicator: TA98, Metabolic Activation: HAMSTER, LIVER, S-9, AROCLOR 1254, Method: STANDARD PLATE inactive; negative | Test System: AMES SALMONELLA TYPHIMURIUM, Strain/Indicator: TA98, Metabolic Activation: NONE, Method: STANDARD PLATE inactive; negative | Test System: AMES SALMONELLA TYPHIMURIUM, Strain/Indicator: TA98, Metabolic Activation: RAT, LIVER, S-9, AROCLOR 1254, Method: STANDARD PLATE inactive; negative | Test System: AMES SALMONELLA TYPHIMURIUM, Strain/Indicator: TA100, Metabolic Activation: HAMSTER, LIVER, S-9, AROCLOR 1254, Method: STANDARD PLATE inactive; negative | Test System: AMES SALMONELLA TYPHIMURIUM, Strain/Indicator: TA100, Metabolic Activation: NONE, Method: STANDARD PLATE inactive; negative | Test System: AMES SALMONELLA TYPHIMURIUM, Strain/Indicator: TA100, Metabolic Activation: RAT, LIVER, S-9, AROCLOR 1254, Method: STANDARD PLATE inactive; negative | Test System: AMES SALMONELLA TYPHIMURIUM, Strain/Indicator: TA102, Metabolic Activation: NONE, Method: STANDARD PLATE inactive; negative | Test System: AMES SALMONELLA TYPHIMURIUM, Strain/Indicator: TA102, Metabolic Activation: RAT, LIVER, S-9, AROCLOR 1254, Method: STANDARD PLATE inactive; negative | Test System: AMES SALMONELLA TYPHIMURIUM, Strain/Indicator: TA1535, Metabolic Activation: HAMSTER, LIVER, S-9, AROCLOR 1254, Method: STANDARD PLATE inactive; negative | Test System: AMES SALMONELLA TYPHIMURIUM, Strain/Indicator: TA1535, Metabolic Activation: NONE, Method: STANDARD PLATE inactive; negative | Test System: AMES SALMONELLA TYPHIMURIUM, Strain/Indicator: TA1535, Metabolic Activation: RAT, LIVER, S-9, AROCLOR 1254, Method: STANDARD PLATE inactive; negative | Test System: AMES SALMONELLA TYPHIMURIUM, Strain/Indicator: TA1537, Metabolic Activation: HAMSTER, LIVER, S-9, AROCLOR 1254, Method: STANDARD PLATE inactive; negative | Test System: AMES SALMONELLA TYPHIMURIUM, Strain/Indicator: TA1537, Metabolic Activation: NONE, Method: STANDARD PLATE inactive; negative | Test System: AMES SALMONELLA TYPHIMURIUM, Strain/Indicator: TA1537, Metabolic Activation: RAT, LIVER, S-9, AROCLOR 1254, Method: STANDARD PLATE inactive; negative | Test System: MOUSE LYMPHOMA, Strain/Indicator: L5178Y (TK+/TK-), Metabolic Activation: NONE, Method: SUSPENSION/PLATE inactive; negative. reevaluation of results: negative | Test System: MOUSE LYMPHOMA, Strain/Indicator: L5178Y (TK+/TK-), Metabolic Activation: RAT, LIVER, S-9, AROCLOR 1254, Method: SUSPENSION/PLATE inactive; negative. reevaluation of results: negative
